Experimental data: ChEMBL document CHEMBL1127255, “Synthesis of the benzofuran analogue of ILV, a new protein kinase C (PKC) activator” (Bioorg Med Chem Lett, 1994)

Target: Protein kinase C alpha type (Homo sapiens, UniProt P17252)
Assay: Displacement of [3H]PDBu from PKC alpha expressed in Sf9 cells

| SMILES | Ki |
| --- | --- |
| CC(C)[C@H]1C(=O)N[C@H](CO)Cc2coc3cccc(c23)N1C | 0.0173 µM |
| CC(C)[C@H]1C(=O)N[C@H](CO)Cc2c[nH]c3cccc(c23)N1C [INDOLACTUM] | 0.011 µM |
